Experimental data reported in the supplement of paper PMC3493320.

These compounds were tested on NCI-H295R (assay: IC50 (antiproliferative, ATP content)). Conditions: 48 h.
In short: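 Adrenocortical carcinoma cells (1500 per well) were seeded in serum-free ITS-supplemented DMEM in 1536-well plates and cultured overnight. Library compounds were then pin-transferred at 8 final concentrations from 0.6 nM to 46 µM, and plates were kept 48 h at 37 °C, 5% CO2. ATP was read as CellTiter-Glo luminescence after 20 min at room temperature and normalised to vehicle (0%) and positive control (100% inhibition). IC50 came from four-parameter logistic fits; compounds with no concentration response were recorded as above the top dose.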

SMILES | IC50
n\24c1c(CCN3[C@H]1[C@](/C=C/2C(=O)OCC)(CCC3)CC)c5c4cccc5 | > 46 µM
CC(=O)Nc1ccc(C(=O)O)cc1 | > 46 µM
Cc1cccc(Nc2ccccc2C(=O)O)c1C | > 46 µM
CC(C)(S)[C@@H](N)C(=O)O | > 46 µM
CC(C)=O | > 46 µM
CCC1=C(C)CN(C(=O)NCCc2ccc(S(=O)(=O)NC(=O)N[C@H]3CC[C@H](C)CC3)cc2)C1=O | > 46 µM
C=CCN1CC[C@]23CCCC[C@H]2[C@H]1Cc1ccc(O)cc13 | > 46 µM
Cc1ccc2nc(N)[nH]c(=O)c2c1Sc1ccncc1.Cl.Cl | > 46 µM
CCCCCCCCCCCC(=O)[O][Sn]([CH2]CCC)([CH2]CCC)[O]C(=O)CCCCCCCCCCC | > 46 µM
O=[N+]([O-])/N=C1\NCCN1Cc1ccc(Cl)nc1 | > 46 µM
Cc1cccc(N(C)C(=S)Oc2ccc3ccccc3c2)c1 | > 46 µM
C[C@@H]1C[C@H]2[C@@H]3C[C@H](F)C4=CC(=O)C=C[C@]4(C)[C@@]3(F)[C@@H](O)C[C@]2(C)[C@@]1(O)C(=O)CO | > 46 µM
COc1cc(C(=S)N2CCOCC2)cc(OC)c1OC | > 46 µM
O=C(C3=CC=CC=C3)O[C@@H]1C[C@H](CC2)N(C)[C@H]2[C@H]1[C@@](OC)=O.Cl | > 46 µM
O=C(O)c1ccccc1OP(=O)(O)O | > 46 µM
C=C[C@H]1CN2CC[C@H]1C[C@H]2[C@H](O)c1ccnc2ccc(OC)cc12 | > 46 µM
Cc1cc(C)c(NC(=O)CN(CC(=O)O)CC(=O)O)c(C)c1Br | > 46 µM
CC(C)[N+](C)(C)CC(O)COc1cccc2ccccc12.[Cl-] (stereo not drawn) | > 46 µM
CCCCC[C@H](O)/C=C/[C@H]1[C@H](O)CC(=O)[C@@H]1CCCCCCC(=O)O | > 46 µM
Oc1ncnc2[nH]ncc12 | > 46 µM
O=c1[n-]c2[nH]c(=O)[nH]c(=O)c2[nH]1.[Na+] | > 46 µM
CNC1(c2ccccc2Cl)CCCCC1=O (stereo not drawn) | > 46 µM
C=CCc1ccccc1OCC(O)CNC(C)C (stereo not drawn) | > 46 µM
Cl.O=C(O)CC/C=C\CC[C@@H]1[C@@H](N2CCCCC2)[C@@H](O)C[C@@H]1OCc1ccc(-c2ccccc2)cc1 | > 46 µM
NC(CSCC(=O)O)C(=O)O (stereo not drawn) | > 46 µM

SMILES | IC50
Oc1cccc(O)c1 | > 46 µM
CC(=O)Nc1ccc(C=NNC(N)=S)cc1 | > 46 µM
O=C(NCCc1c[nH]c2ccccc12)c1cccnc1 | > 46 µM
C=CCN1C(=O)C(CC(C)C)NC1=S (stereo not drawn) | > 46 µM
O=[N+]([O-])c1ccc(F)c([N+](=O)[O-])c1 | > 46 µM
BrCCCBr.CN(C)CCCCCCN(C)C | > 46 µM
CCOC(=O)c1ccc(OC(=O)CCCCCNC(=N)[NH3+])cc1.CS(=O)(=O)[O-] | > 46 µM
CCC(=O)OCC(=O)[C@@]1(OC(=O)CC)[C@H](C)C[C@H]2[C@H]3[C@H]([C@@H](O)C[C@@]21C)[C@@]1(C)C=CC(=O)C=C1C[C@H]3Cl | > 46 µM
CCCCC/C=C\C/C=C\CCCCCCCC(=O)O | > 46 µM
Cc1c(Cl)cccc1Nc1ncccc1C(=O)O | > 46 µM
NC(=O)NO | > 46 µM
OCC(O)CO | > 46 µM
Clc1ccc2c(c1)C(c1ccccc1)=NCc1nncn1-2 | > 46 µM
O=C(O)CN(CCN(CC(=O)O)CC(=O)O)CCN(CC(=O)O)CC(=O)O | > 46 µM
CC(C)N(CCC(C(N)=O)(c1ccccc1)c1ccccn1)C(C)C (stereo not drawn) | > 46 µM
OCC(=O)[C@@]2(O)CC[C@H]3[C@@H]4CC\C1=C\C(=O)CC[C@]1(C)[C@H]4[C@@H](O)C[C@]23C | > 46 µM
Cc1c(N(C)CS(=O)(=O)[O-])c(=O)n(-c2ccccc2)n1C.[Na+] | > 46 µM
COc1ccc(OC)c(C(O)C(C)N)c1.Cl (stereo not drawn) | > 46 µM
O=C1[C@H]([C@H](C)C)CC[C@@H](C)C1 | > 46 µM
Cl.NC1=NCC2c3ccccc3Cc3ccccc3N12 (stereo not drawn) | > 46 µM
CC=CC=NNC(=O)c1ccncc1 | > 46 µM
O=[N+]([O-])O[C@H]1CO[C@H]2[C@@H]1OC[C@H]2O[N+](=O)[O-] | > 46 µM
OC[C@H]1O[C@@H]2O[C@H]3[C@H](O)[C@@H](O)[C@@H](O[C@H]4[C@H](O)[C@@H](O)[C@@H](O[C@H]5[C@H](O)[C@@H](O)[C@@H](O[C@H]6[C@H](O)[C@@H](O)[C@@H](O[C@H]7[C@H](O)[C@@H](O)[C@@H](O[C@H]8[C@H](O)[C@@H](O)[C@@H](O[C@H]1[C@H](O)[C@H]2O)O[C@@H]8CO)O[C@@H]7CO)O[C@@H]6CO)O[C@@H]5CO)O[C@@H]4CO)O[C@@H]3CO | > 46 µM
O=C(N[C@@H](CCCCN)C(N[C@@H](C(O)C)C(N[C@H](C(N[C@@H]([C@@H](O)C)C(N[C@@H](CO)C6=O)=O)=O)CC5=CC=CC=C5)=O)=O)[C@@H](NC([C@@H](NC([C@@H](NC([C@H](CC(N)=O)NC([C@H](CCCCN)NC([C@@H](NC(CNC([C@@H](N)C)=O)=O)CSSC[C@@H]([C@@](O)=O)N6)=O)=O)=O)CC4=CC=CC=C4)=O)CC3=CC=CC=C3)=O)CC1=CNC2=C1C=CC=C2 (stereo partly drawn) | > 46 µM
O=C1c2ccccc2C(=O)c2ccccc21 | > 46 µM

SMILES | IC50
[C@@]2\1(\C(=C/C(/C=C/1)=O)[C@H](C[C@@H]4[C@@H]2[C@H](C[C@@]3([C@](C(COC(=O)C)=O)(O)CC[C@H]34)C)O)C)C | > 46 µM
Cc1cccc(Nc2cc(Cl)nc(SCC(=O)O)n2)c1C | > 46 µM
CN(CCOc1ccc(NS(C)(=O)=O)cc1)CCc1ccc(NS(C)(=O)=O)cc1 | > 46 µM
C[C@H]1COc2c(C3(N)CC3)c(F)cc3c(=O)c(C(=O)O)cn1c23 | > 46 µM
Cc1ncsc1CCCl | > 46 µM
CC(O)CCCCn1c(=O)c2c(ncn2C)n(C)c1=O (stereo not drawn) | > 46 µM
Cc1cccc(C)c1NC(=O)C1CCCCN1C.Cl (stereo not drawn) | > 46 µM
Cc1nc(Nc2ncc(C(=O)Nc3c(C)cccc3Cl)s2)cc(N2CCN(CCO)CC2)n1 | > 46 µM
CC(C)[C@H](CC)CC[C@@H](C)[C@H]3CC[C@H]2[C@@H]4C\C=C1\C[C@@H](O)CC[C@]1(C)[C@H]4CC[C@@]23C | > 46 µM
O=C(O)CCCCCCCC(=O)O | > 46 µM
CCN(CC)C(=O)c1ccc(O)c(OC)c1 | > 46 µM
NC(=O)OC[C@@H]1[C@H](NC(=O)/C(=N\OCC(=O)[O-])c2csc(N)n2)C(=O)N1S(=O)(=O)[O-].[Na+].[Na+] | > 46 µM
Oc1ccc(/C=C/c2cc(O)cc(O)c2)cc1 | > 46 µM
CC(=O)NS(=O)(=O)c1ccc(N)cc1 | > 46 µM
OCC(O)CS (stereo not drawn) | > 46 µM
CC(CN1c2ccccc2Sc2ccccc21)N(C)C (stereo not drawn) | > 46 µM
N\1(C(NC(/C(=C/1)C)=O)=O)[C@@H]2O[C@H](CO)[C@H](C2)O | > 46 µM
CNC(=O)[C@H](Cc1c[nH]c2ccccc12)NC(=O)[C@@H](CC(=O)NO)CC(C)C | > 46 µM
O=C(C)O[C@@H]([C@H]4[N@@+]6(CCCCC6)C)[C@](CC5)(C)[C@](C4)([H])[C@@]3([H])[C@@]5([H])[C@@]2(C)C[C@@H]([C@@H](OC(C)=O)C[C@@]([H])2CC3)N1CCCCC1.[Br-] | > 46 µM
CCOC(=O)C(CS)NCCNC(CS)C(=O)OCC.Cl.Cl (stereo not drawn) | > 46 µM
CN(CCOc1ccc(CC2SC(=O)NC2=O)cc1)c1ccccn1 (stereo not drawn) | > 46 µM
C[C@]12CCC(=O)C=C1C=C[C@@H]1[C@@H]2CC[C@@]2(C)[C@H]1CC[C@@]2(O)CCC(=O)[O-].[K+] | > 46 µM
CC(C)C[C@@H](NC(=O)[C@@H](O)[C@H](N)Cc1ccccc1)C(=O)O.Cl | > 46 µM
Cc1cn([C@H]2C[C@H](N=[N+]=[N-])[C@@H](CO)O2)c(=O)[nH]c1=O | > 46 µM
O=C(O)/C=C\C(=O)O.c1ccc2nc(N3CCNCC3)ccc2c1 | > 46 µM

SMILES | IC50
CC1CCN(CCCC(=O)c2ccc(F)cc2)CC1 | > 46 µM
OC[C@@H](O)[C@@H](O)[C@H](O)[C@H](O)CO | > 46 µM
C=C1CC[C@@]2(O)[C@H]3Cc4ccc(O)c5c4[C@@]2(CCN3CC2CC2)[C@H]1O5 | > 46 µM
F[C@@]([C@](C[C@@H]5F)([H])[C@@](C4)([H])[C@@]2(C)[C@@]1([C@](COC(C)=O)=O)[C@]4([H])OC(C)(C)O1)([C@@H](O)C2)[C@](C=C3)(C)C5=CC3=O | > 46 µM
CN(C)N=Nc1nc[nH]c1C(N)=O | > 46 µM
C=CC(N)CCC(=O)O (stereo not drawn) | > 46 µM
CCCCNc1ccc(C(=O)OCCN(C)C)cc1.Cl | > 46 µM
NC(Cc1ccccc1)C(=O)O (stereo not drawn) | > 46 µM
F[C@]2([C@](C)3CC4)[C@@H](O)C[C@]1(C)[C@@](OC(C)=O)([C@@](C)=O)CC[C@]([H])1[C@@]([H])2CCC3=CC4=O | > 46 µM
CCOC(=O)OC(C)OC1=C(C(=O)Nc2ccccn2)N(C)S(=O)(=O)c2ccccc21 (stereo not drawn) | > 46 µM
Nc1ccccc1C(=O)O | > 46 µM
COc1ccc(-c2cc(C(F)F)nn2-c2ccc(S(N)(=O)=O)cc2)cc1F | > 46 µM
O=C1CCc2cc(OCCCCc3nnnn3C3CCCCC3)ccc2N1 | > 46 µM
Cc1cc(=O)[nH]c(=S)[nH]1 | > 46 µM
Cc1cc(NS(=O)(=O)c2ccc(N)cc2)nc(C)n1 | > 46 µM
COc1ccccc1O | > 46 µM
O=C(OC[C@H]1O[C@](O)(COC(=O)c2cccnc2)[C@@H](OC(=O)c2cccnc2)[C@@H]1OC(=O)c1cccnc1)c1cccnc1 | > 46 µM
[H][C@@]23N(CCC4=C3NC5=C4C=CC(OC)=C5)C[C@@]1([H])C[C@@H](OC(COC6=CC=C(OC)C=C6)=O)[C@H](OC)[C@@H]([C@@](OC)=O)[C@]([H])1C2 | > 46 µM
Br.COc1ccc2c(c1)[C@]13CCCC[C@@H]1[C@H](C2)N(C)CC3.O | > 46 µM
NC(=O)OCCCc1ccccc1 | > 46 µM
O=C(O)CNC(=O)c1ccccc1I | > 46 µM
CCC(=O)O[C@@](Cc1ccccc1)(c1ccccc1)[C@@H](C)CN(C)C.O=S(=O)(O)c1ccc2ccccc2c1 | > 46 µM
O=C(NCCN1CCOCC1)c1ccc(Cl)cc1 | > 46 µM
